What is called IC50 is the concentration at which inhibition is half-maximal. Low values mean greater potency in that assay, high ones weaker potency in that assay. As usually defined, the Kd is the equilibrium constant for the complex coming apart. Higher therefore signals lower affinity.

Molecules are shown by their SMILES. Values joined by “and” are separate entries in the source; they are usually repeats but may differ in a detail not shown here. Equal entries are not always repeated.

These results are taken from PMC12670395, “Structural Rationalization of IPMK Inhibitor Potency” (Journal of Medicinal Chemistry, 2025).

In one series the target is IP3K-A (Homo sapiens, UniProt P23677). The series is described as follows: IP3K kinase activity assay ([3H]-InsP3, HPLC). The format is biochemical. Conditions: 1.0 μM 1,4,5-InsP3, 1.0 mM ATP, 0.25 nM IP3K-A; standard error, n = 3. The protocol: (§1) For all enzyme assays, a serial dilution of the enzyme was performed in the kinase assay to determine the linear range of the enzyme concentration to be used.
Sequence of IP3K-A (P23677 whole entry): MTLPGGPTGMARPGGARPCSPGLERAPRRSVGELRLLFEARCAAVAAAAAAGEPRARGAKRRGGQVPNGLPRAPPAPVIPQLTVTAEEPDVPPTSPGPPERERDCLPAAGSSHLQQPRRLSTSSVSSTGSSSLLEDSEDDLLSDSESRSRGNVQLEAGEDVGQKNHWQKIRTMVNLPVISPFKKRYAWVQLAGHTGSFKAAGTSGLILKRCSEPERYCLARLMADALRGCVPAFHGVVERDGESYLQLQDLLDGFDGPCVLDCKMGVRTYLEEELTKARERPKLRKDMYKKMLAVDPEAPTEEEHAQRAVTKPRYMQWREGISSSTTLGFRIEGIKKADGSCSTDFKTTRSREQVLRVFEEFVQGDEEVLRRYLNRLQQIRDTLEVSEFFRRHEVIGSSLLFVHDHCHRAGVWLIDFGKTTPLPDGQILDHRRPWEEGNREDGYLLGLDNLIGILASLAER
Each reaction contained 1.0 μM [^3H]-1,4,5-InsP3 (approximately 30,000 dpm; American Radiolabeled Chemicals, Inc., ART 0270) in a 100 μL incubation containing 20 mM HEPES (pH 7.2), 100 mM KCl, 3.5 mM MgCl2, 20 μM EDTA, 1.0 mM ATP, 1.0 μM 1,4,5-InsP3, plus test compound in DMSO (or vehicle control), and 0.25 nM IP3K-A. Reactions were quenched after 60 min by the addition of 2 volumes of 0.2 M NH4H2PO4, pH 3.9 and 20 mM EDTA and stored at 27 °C. Assays were analyzed by HPLC, using a PartiSphere SAX 120 Å, 5 μm, 4.6 × 125 mm HPLC column with a 250 μL injection volume. The elution gradient was generated by mixing Buffer A (1 mm Na2EDTA) with Buffer B (Buffer A plus 2.5 M NH4H2PO4, pH 3.9) and monitored by a β-RAM 6 in-line scintillation detector. A 1.0 mL/min elute was mixed with 0.5 or 2.5 mL/min monoflow scintillation liquid for ^33P or ^3H, respectively. Radiochromatography data were collected and analyzed using Laura software (v6.1.2.36).

For series [1], the target named is T1, human IPMK (Homo sapiens, UniProt Q8NFU5).
T1 sequence (Q8NFU5 with tags, fused parts or gaps): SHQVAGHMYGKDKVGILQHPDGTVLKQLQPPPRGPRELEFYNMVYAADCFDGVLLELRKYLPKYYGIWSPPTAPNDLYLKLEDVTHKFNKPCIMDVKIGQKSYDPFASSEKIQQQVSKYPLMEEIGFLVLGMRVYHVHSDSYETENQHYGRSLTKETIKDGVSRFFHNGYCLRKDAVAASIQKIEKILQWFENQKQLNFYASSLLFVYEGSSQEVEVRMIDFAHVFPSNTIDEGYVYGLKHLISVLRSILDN
The series is described as follows: IPMK kinase activity assay (33P-radiolabeled HPLC assay). It counts as biochemical. Conditions: 33P-1,3,4,5-IP4 to InsP5, 1.0 mM ATP, 2 nM IPMK; mean with standard error, n = 3 (compound 1 n = 5). The protocol: as §1
(§2) We prepared ^33P-1,3,4,5-IP4 by incubating 1,4,5-IP3, ^33P-ATP, and IPMK, isolated the product with a 30 K d MW cutoff filter. Each reaction contained trace amounts (4,00,000 disintegrations per minute (dpm)) of ^33P-1,3,4,5-IP4 in a 100 μL incubation containing 20 mM HEPES (pH 7.2), 100 mM KCl, 3.5 mM MgCl2, 20 μM EDTA, 1.0 mM ATP, 1 μM 1,3,4,5-IP4, plus test compound in DMSO (or vehicle control) plus 2 nM IPMK. Assays were analyzed by HPLC, using a PartiSphere SAX 120, 5 μm, 4.6 × 125 mm HPLC column with a 250 μL injection volume. The elution gradient was generated by mixing Buffer A (1 mm Na2EDTA) with Buffer B (Buffer A plus 2.5 M NH4H2PO4, pH 3.9) and monitored by a β-RAM 6 in-line scintillation detector. A 1.0 mL/min elute was mixed with 0.5 or 2.5 mL/min monoflow scintillation liquid for ^33P or ^3H, respectively. Radiochromatography data were collected and analyzed using Laura software (v6.1.2.36).

Series [2] concerns human IPMK. Described as above. The format is biochemical. Conditions: for selectivity for IPMK over IP6K1: from IC50 values; for IP6K1/IPMK: ratio of IP6K1 IC50 to IPMK IC50. The protocol: as §1, §2
The target of another series is T2, human IP6K1 (Homo sapiens, UniProt Q92551).
T2 construct: made in house
T2 sequence (Q92551 whole entry): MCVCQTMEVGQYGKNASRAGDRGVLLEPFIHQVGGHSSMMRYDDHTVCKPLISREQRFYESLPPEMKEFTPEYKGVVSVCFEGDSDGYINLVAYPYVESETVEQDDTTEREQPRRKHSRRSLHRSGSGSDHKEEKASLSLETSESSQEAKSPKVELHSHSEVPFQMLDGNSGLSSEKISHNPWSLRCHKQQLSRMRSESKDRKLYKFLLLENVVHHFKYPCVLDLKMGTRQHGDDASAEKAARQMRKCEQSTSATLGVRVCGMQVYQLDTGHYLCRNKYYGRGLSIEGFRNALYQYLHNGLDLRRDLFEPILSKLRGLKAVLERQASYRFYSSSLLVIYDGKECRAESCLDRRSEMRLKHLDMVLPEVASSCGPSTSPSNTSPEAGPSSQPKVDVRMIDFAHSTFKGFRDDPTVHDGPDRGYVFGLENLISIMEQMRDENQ
As to the kind of experiment: IP6K kinase activity assay (enzyme-coupled, malachite green Pi release). The format is biochemical. Conditions: 100 nM IP6K1, 25 μM InsP6, 500 μM ATP, 37 °C; mean with standard error, n = 3. The protocol: as §1
An enzyme-coupled assay was used to measure IP6K activity. Enzyme activity was assayed at 37 °C in 50 μL of reaction mixtures containing 100 nM IP6K1, 5.0 μM human Dipp1, 20 mM HEPES (pH 7.2), 100 mM KCl, 3.5 mM MgCl2, 20 μM EDTA, 25 μM InsP6, and 500 μM ATP for 60–120 min. Pi release was determined with a malachite green colorimetric assay. Reactions were quenched by the addition of 100 μL of phosphate detection reagent (36:1 v/v of 2.6% sodium molybdate in 2.5 M HCl: 0.126% malachite green chloride). Phosphate (Pi) release was quantified from the absorbance at 620 nm by using appropriate standards.

Series [3] has as its target T1, human IPMK. As to the kind of experiment: Isothermal titration calorimetry (ITC). The format is binding. The conditions noted are these: 15 μM IPMK in cell, 150 μM inhibitor in syringe, 25 °C, pH 7.2. The protocol: Isothermal calorimetry experiments were performed using a MicroCal PEAQ-ITC (Malvern Panalytical) with 15 μM recombinant human IPMK in the sample cell and 150 μM inhibitor 1 in the syringe, each of which was maintained at 25 °C in buffer containing 20 mM Tris-HCl, pH 7.2, 150 mM KCl, 0.05 mM EDTA, and 0.8 mM MgCl2. The sample cell (volume = 204 μL) and the syringe were cleaned before each run. Thermograms were constructed from 20 injections, each of which involved 2.0 μL of ligand delivered for 4.0 s, with an equilibration time of 150–300 s between each injection. The stirring speed was set to 750 rpm. Data were fitted to a single binding site model using the analysis software provided by the manufacturer, as supported by X-ray crystallography. At least three runs were performed.
For orientation: Isothermal titration calorimetry measures the heat released or taken up as one component is titrated into another.

On the set-up of series [4]: method as in recent work from another group (number not given). Conditions: mice, intraperitoneal injection; ref recent work from another group (number not given); cited from earlier work.
The test system of series [5] is human U251-MG glioblastoma cells. Also noted: method as in other studies (number not given). The conditions noted are these: ref other studies (number not given); cited from earlier work.

With `Cc1cc(C)cc(-c2onc3ccc(/C=C/C(=O)O)cc23)c1` [Compound 1], the values for the half-inhibitory concentration (IC50) at IP3K-A, at human IPMK [1] and on human IP6K1 were 8 µM, 12.8 ± 2 nM and 146 ± 23 nM, respectively. In addition, the “selectivity for IPMK over IP6K1” value in the series with human IPMK [2] is recorded as “approximately 10 fold”. Further, in the series with human IPMK [2], the IP6K1/IPMK amounted to 11.4. Besides, the Kd on human IPMK [3] was 11 nM.
`Cc1cc(C)cc(-c2onc3ccc([C@H]4C[C@@H]4C(=O)O)cc23)c1` [Compound 2]: the figures for the IC50 against human IPMK [1] and against human IP6K1 were 8.1 ± 2 nM and 45 ± 7 nM, respectively. The IP6K1/IPMK with human IPMK [2] was 5.6.
On human IPMK [1], `Cc1cc(C)cc(-c2onc3ccc(C(=O)O)cc23)c1` [Compound 3] showed an IC50 of 29 ± 5 nM. Moreover, the IP6K1/IPMK in the series on human IPMK [2] is on record as 3.
Take `Cc1cc(C)cc(-c2onc3ccc(-c4nnn[nH]4)cc23)c1` [Compound 4]: the IC50 amounted to 1.9 ± 0.2 nM against human IPMK [1] and 24 ± 6 nM against human IP6K1. Further, the IP6K1/IPMK in the series on human IPMK [2] worked out at 13.
For the molecule `c1ccc(-c2onc3ccc(-c4nnn[nH]4)cc23)cc1` [Compound 6], the figures for the IC50 on human IPMK [1] and at human IP6K1 were 3.8 ± 0.4 nM and 38 ± 8 nM, respectively. Further, the “selectivity for IPMK over IP6K1” value with human IPMK [2] amounted to 10 fold. The IP6K1/IPMK with human IPMK [2] was found to be 10.
Consider `FC(F)(F)c1ccc(-c2onc3ccc(-c4nnn[nH]4)cc23)cc1` [Compound 7], for which, on human IPMK [1], the midpoint of inhibition, the IC50, lay at 2.5 ± 0.3 nM. The IP6K1/IPMK with human IPMK [2] came to 9.2.
On to `FC(F)(F)Oc1ccc(-c2onc3ccc(-c4nnn[nH]4)cc23)cc1` [Compound 8], for which the IC50 is 3.3 ± 0.4 nM on human IPMK [1] and 59 ± 14 nM against human IP6K1. The IP6K1/IPMK with human IPMK [2] amounted to 13.
`c1ccc(Oc2ccc(-c3onc4ccc(-c5nnn[nH]5)cc34)cc2)cc1` [Compound 9]: the half-maximal inhibitory concentration (IC50) against human IPMK [1] is 11 ± 2 nM; at human IP6K1 it was 1270 nM and 1300 nM. Further, the IP6K1/IPMK with human IPMK [2] is given as 115.
As for `O=C(Nc1ccc(-c2onc3ccc(-c4nnn[nH]4)cc23)cc1)C1CC1` [Compound 10], the IC50 against human IPMK [1] is 3.5 ± 0.4 nM; against human IP6K1, 35.8 nM and 36 nM. Also, the IP6K1/IPMK with human IPMK [2] was determined as 10.
Take `O=C(Nc1cccc(-c2onc3ccc(-c4nnn[nH]4)cc23)c1)C1CC1` [Compound 11]: on human IPMK [1], the IC50 is 0.99 nM and 1 nM. In the series with human IPMK [2], the “selectivity for IPMK over IP6K1” value came out at 50 fold and the IP6K1/IPMK came to 52. The IC50 against human IP6K1 was 52 nM and 51.8 nM.
Regarding `c1cc(OC2CCNCC2)cc(-c2onc3ccc(-c4nnn[nH]4)cc23)c1` [Compound 12], the half-inhibitory concentration (IC50) against human IPMK [1] is 3.4 ± 0.5 nM. In the series on human IPMK [2], the IP6K1/IPMK was found to be 8.8.
Take `Clc1cnc(Oc2cccc(-c3onc4ccc(-c5nnn[nH]5)cc34)c2)c(Cl)c1` [Compound 13]: the results for the IC50 against human IPMK [1] and at human IP6K1 were 9.5 ± 2 nM and 19 ± 4 nM, respectively. Also, the IP6K1/IPMK in the series on human IPMK [2] stood at 1.9.
For `c1cc(-c2onc3ccc(-c4nnn[nH]4)cc23)cc(C2CCN(C3CCC3)CC2)c1` [Compound 14], the “clearance, half-life, and volume of distribution” value in series [4] was “reasonable”. Besides, the half-inhibitory concentration (IC50) at human IPMK [1] was 3 nM and 2.8 nM. In addition, in series [5], the cellular growth result is given as “decrease” and the inositol phosphate metabolism result was “decrease”.
As to `O=C(Nc1cccc(-c2onc3ccc(-c4nnn[nH]4)cc23)c1)C1CCCC1` [Compound 15], the half-inhibitory concentration (IC50) on human IPMK [1] was 1.1 nM and 1.13 nM; on human IP6K1, 40.1 ± 4 nM. For the same molecule, the IP6K1/IPMK in the series with human IPMK [2] is reported as 36.
